According to patent US7501430B2 (ArQule, Inc., priority 2006, dated 2009):

Molecular target: T1, mutant B-RAF (Homo sapiens, UniProt P15056, V600E)
T1 construct: purchased Upstate (Charlottesville, Va.)
Assay: RAF biochemical assay (MEK-1 phosphorylation, anti-phospho MEK1/2 detection)
Conditions: not given
Method in brief: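 Detection is by ELISA: after a 30 min room-temperature reaction, plate-captured GST-MEK-1 is probed with anti-phospho MEK1/2, then an AP-tagged secondary antibody with fluorescent Attophos read-out.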

T1 sequence (P15056 whole entry V600E): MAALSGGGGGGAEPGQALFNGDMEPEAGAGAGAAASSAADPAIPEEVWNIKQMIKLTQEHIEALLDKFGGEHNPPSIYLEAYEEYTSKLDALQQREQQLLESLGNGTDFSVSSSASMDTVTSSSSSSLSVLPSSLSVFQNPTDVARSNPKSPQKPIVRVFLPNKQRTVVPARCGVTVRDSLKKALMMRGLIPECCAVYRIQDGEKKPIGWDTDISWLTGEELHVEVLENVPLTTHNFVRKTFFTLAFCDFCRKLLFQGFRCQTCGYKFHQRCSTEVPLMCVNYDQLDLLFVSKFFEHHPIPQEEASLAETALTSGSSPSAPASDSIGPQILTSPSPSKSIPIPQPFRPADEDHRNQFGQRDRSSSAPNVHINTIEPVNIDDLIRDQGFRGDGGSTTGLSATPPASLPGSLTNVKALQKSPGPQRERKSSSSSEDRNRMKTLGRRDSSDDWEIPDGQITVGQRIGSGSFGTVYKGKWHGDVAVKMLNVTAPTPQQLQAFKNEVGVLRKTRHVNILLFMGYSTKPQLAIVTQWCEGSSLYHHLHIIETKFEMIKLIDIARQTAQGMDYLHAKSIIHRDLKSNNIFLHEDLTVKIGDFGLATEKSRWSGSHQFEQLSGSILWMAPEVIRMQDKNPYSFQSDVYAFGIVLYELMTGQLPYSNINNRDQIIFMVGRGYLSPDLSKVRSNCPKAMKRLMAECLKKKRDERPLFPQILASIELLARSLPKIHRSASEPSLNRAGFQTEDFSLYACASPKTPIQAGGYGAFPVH

Compound | IC50
CC(C)(N)C(=O)N1CCC[C@@H](Nc2nccc(-c3c(-c4ccc(F)cc4)nc4occn34)n2)C1 [Example 36, N-[(3R)-1-(2-amino-2-methylpropanoyl)piperidin-3-yl]-4-[6-(4-fluorophenyl)imi-dazo[2,1-b][1,3]oxazol-5-yl]pyrimidin-2-amine] | 4.52 µM
O=C(CCc1ccccc1)N1CCC[C@@H](Nc2nccc(-c3c(-c4ccc(F)cc4)nc4occn34)n2)C1 [Example 38, 4-[6-(4-fluorophenyl)imi-dazo[2,1-b][1,3]oxazol-5-yl]-N-[(3R)-1-(3-phenylpro-panoyl)piperidin-3-yl]pyr-imidin-2-amine] | 2.9 µM

Same assay, conditions: @ 10 uM; read-out: Mutant B-RAF % inhibition

Compound | inhibition at 10 µM
COc1ccc(Cl)cc1S(=O)(=O)N1CCC[C@@H](Nc2nccc(-c3c(-c4ccc(F)cc4)nc4occn34)n2)C1 [Example 61, N-{(3R)-1-[(5-chloro-2-methoxyphenyl)sulfonyl]piperidin-3-yl}-4-[6-(4-fluorophenyl)imidazo[2,1-b][1,3]oxazol-5-yl]pyrimidin-2-amine] | 37%
COc1cccc(-c2nc3occn3c2-c2ccnc(N[C@@H]3CCCN(S(=O)(=O)c4ccc(Cl)cc4)C3)n2)c1 [Example 103, N-{(3R)-1-[(4-chlorophenyl)sulfonyl]piperidin-3-yl}-4-[6-(3-methoxyphenyl)imidazo[2,1-b][1,3]oxazol-5-yl]pyrimidin-2-amine] | 48%
Cc1ccccc1-c1nc2occn2c1-c1ccnc(NC2CCN(S(C)(=O)=O)CC2)n1 [Example 308, 4-[6-(2-methylphenyl)imidazo[2,1-b][1,3]oxazol-5-yl]-N-(1-(methylsulfonyl)piperidin-4-yl]pyrimidin-2-amine] | 45%

Continued, values first:

inhibition at 10 µM | Compound
55% | CS(=O)(=O)N1CCC(Nc2nccc(-c3c(-c4ccc(F)cc4)nc4occn34)n2)CC1 [Example 299, 4-[6-(4-fluorophenyl)imidazo[2,1-b][1,3]oxazol-5-yl]-N-[1-(methylsulfonyl)piperidin-4-yl]pyrimidin-2-amine]
35% | N#Cc1cccc(-c2nc3sccn3c2-c2ccnc(N[C@@H]3CCN(S(=O)(=O)c4ccc(Cl)cc4)C3)n2)c1 [Example 285, 3-{5-[2-({(3R)-1-[(4-chlorophenyl)sulfonyl]pyrrolidin-3-yl}amino)pyrimidin-4-yl]imidazo[2,1-b][1,3]thiazol-6-yl}benzonitrile]
41% | CC(=O)N1CCC(Nc2nccc(-c3c(-c4ccc(F)cc4)nc4sccn34)n2)CC1 [Example 291, N-(1-acetylpiperidin-4-yl)-4-[6-(4-fluorophenyl)imidazo[2,1-b][1,3]thiazol-5-yl]pyrimidin-2-amine]
32% | FC(F)(F)c1cccc(-c2nc3occn3c2-c2ccnc(NC3CCNCC3)n2)c1 [Example 306, N-piperidin-4-yl-4-{6-[3-(trifluoromethyl)phenyl]imidazo[2,b][1,3]oxazol-5-yl}pyrimidin-2-amine]

Same assay, conditions: read-out: Mutant B-RAF IC50

Compound | IC50
O=S(=O)(Cc1ccccc1)N1CCC[C@@H](Nc2nccc(-c3c(-c4cccc(O)c4)nc4occn34)n2)C1 [Example 391, 3-[5-(2-{[(3R)-1-(benzylsulfonyl)piperidin-3-yl]amino}pyrimidin-4-yl)imidazo[2,1-b][1,3]oxazol-6-yl]phenol] | > 3 µM
O=C(c1ccncc1)N1CCC[C@@H](Nc2nccc(-c3c(-c4cccc(O)c4)nc4sccn34)n2)C1 [Example 117, 3-[5-(2-{[(3R)-1-isonicotinoylpiperidin-3-yl]amino}pyrimidin-4-yl)imidazo[2,1-b][1,3]thiazol-6-yl]phenol] | 0.328 µM
Cn1cnc(S(=O)(=O)N2CCC[C@@H](Nc3nccc(-c4c(-c5cccc(O)c5)nc5sccn45)n3)C2)c1 [Example 366, 3-{5-[2-({(3R)-1-[(1-methyl-1H-imidazol-4-yl)sulfonyl]piperidin-3-yl}amino)pyrimidin-4-yl]imidazo[2,1-b][1,3]thiazol-6-yl}phenol] | 0.011 µM
O=C(O)c1ccc(-c2nc3sccn3c2-c2ccnc(N[C@@H]3CCCN(S(=O)(=O)c4ccc(Cl)cc4)C3)n2)cc1O [Example 133, 4-{5-[2-({(3R)-1-[(4-chlorophenyl)sulfonyl]piperidin-3-yl}amino)pyrimidin-4-yl]imidazo[2,1-b][1,3]thiazol-6-yl}-2-hydroxybenzoic acid] | 0.84 µM
COc1cccc(-c2nc3sccn3c2-c2ccnc(NC3CCNCC3)n2)c1 [Example 208, 4-[6-(3-methoxyphenyl)imidazo[2,1-b][1,3]thiazol-5-yl]-N-piperidin-4-ylpyrimidin-2-amine] | 2.93 µM
O=C(c1cccc2cccnc12)N1CCC(Nc2nccc(-c3c(-c4ccc(F)cc4)nc4occn34)n2)CC1 [Example 161, 4-[6-(4-fluorophenyl)Imidazo[2,1-b][1,3]oxazol-5-yl]-N-[1-(quinolin-8-ylcarbonyl)piperidin-4-yl]pyrimidin-2-amine] | 1.57 µM
COc1ccc(C(=O)N2CCC[C@@H](Nc3nccc(-c4c(-c5cccc(OC)c5)nc5sccn45)n3)C2)cc1 [Example 83, N-[(3R)-1-(4-methoxybenzoyl)piperidin-3-yl]-4-[6-(3-methoxyphenyl)imidazo[2,1-b][1,3]thiazol-5-yl]pyrimidin-2-amine] | > 3 µM
NC(=O)Oc1cccc(-c2nc3occn3c2-c2ccnc(N[C@@H]3CCCN(S(=O)(=O)c4ccc(Cl)cc4)C3)n2)c1 [Example 386, 3-{5-[2-({(3R)-1-[(4-chlorophenyl)sulfonyl]piperidin-3-yl}amino)pyrimidin-4-yl]imidazo[2,1-b][1,3]oxazol-6-yl}phenyl carbamate] | 0.109 µM
CC(C)NC(=O)N1CCC[C@@H](Nc2nccc(-c3c(-c4cccc(O)c4)nc4sccn34)n2)C1 [Example 334, (3R)-3-({4-[6-(3-hydroxyphenyl)imidazo[2,1-b][1,3]thiazol-5-yl]pyrimidin-2-yl}amino)-N-isopropylpiperidine-1-carboxamide] | 0.65 µM
O=S(=O)(c1cccc(C(F)(F)F)c1)N1CCC(Nc2nccc(-c3c(-c4ccc(F)cc4)nc4occn34)n2)CC1 [Example 202, 4-[6-(4-fluorophenyl)imidazo[2,1-b][1,3]oxazol-5-yl]-N-(1-{[3-(trifluoromethyl)phenyl]sulfonyl}piperidin-4-yl)pyrimidin-2-amine] | 0.84 µM

Continued, values first:

IC50 | Compound
0.116 µM | CS(=O)(=O)N1CCC[C@@H](Nc2nccc(-c3c(-c4cccc(O)c4)nc4sccn34)n2)C1 [Example 152, 3-[5-(2-{[(3R)-1-(methylsulfonyl)piperidin-3-yl]amino}pyrimidin-4-yl)imidazo[2,1-b][1,3]thiazol-6-yl]phenol]
0.218 µM | Cc1ccc(S(=O)(=O)N2CCC(Nc3nccc(-c4c(-c5ccc(F)cc5)nc5occn45)n3)CC2)cc1 [Example 198, 4-[6-(4-fluorophenyl)imidazo[2,1-b][1,3]oxazol-5-yl]-N-{1-[(4-methylphenyl)sulfonyl]piperidin-4-yl}pyrimidin-2-amine]
0.675 µM | O=S(=O)(c1ccc(F)cc1)N1CCC(Nc2nccc(-c3c(-c4ccc(F)cc4)nc4occn34)n2)CC1 [Example 157, 4-[6-(4-fluorophenyl)imidazo[2,1-b][1,3]oxazol-5-yl]-N-{1-[(4-fluorophenyl)sulfonyl]piperidin-4-yl}pyrimidin-2-amine]
1.11 µM | CCCCNC(=O)N1CCC(Nc2nccc(-c3c(-c4ccc(F)cc4)nc4occn34)n2)CC1 [Example 168, N-butyl-4-({4-[6-(4-fluorophenyl)imidazo[2,1-b][1,3]oxazol-5-yl]pyrimidin-2-yl}amino)piperidine-1-carboxamide]
2.04 µM | CC(C)CC(=O)N1CCC(Nc2nccc(-c3c(-c4ccc(F)cc4)nc4occn34)n2)CC1 [Example 180, 4-[6-(4-fluorophenyl)imidazo[2,1-b][1,3]oxazol-5-yl]-N-[1-(3-methylbutanoyl)piperidin-4-yl]pyrimidin-2-amine]
0.696 µM | O=S(=O)(c1ccc(Cl)cc1)N1CCC(Nc2nccc(-c3c(-c4ccc(F)cc4)nc4sccn34)n2)CC1 [Example 255, N-{1-[(4-chlorophenyl)sulfonyl]piperidin-4-yl}-4-[6-(4-fluorophenyl)imidazo[2,1-b][1,3]thiazol-5-yl]pyrimidin-2-amine]
4.73 µM | O=C(Nc1ccccc1)N1CCC(Nc2nccc(-c3c(-c4ccc(F)cc4)nc4occn34)n2)CC1 [Example 171, 4-({4-[6-(4-fluorophenyl)imidazo[2,1-b][1,3]oxazol-5-yl]pyrimidin-2-yl}amino)-N-phenylpiperidine-1-carboxamide]
0.354 µM | O=C(NC1CCCCO1)N1CCC(Nc2nccc(-c3c(-c4ccc(F)cc4)nc4occn34)n2)CC1 (stereo not shown) [Example 177, 4-({4-[6-(4-fluorophenyl)imidazo[2,1-b][1,3]oxazol-5-yl]pyrimidin-2-yl}amino)-N-(tetrahydro-2H-pyran-2-yl)piperidine-1-carboxamide]
2.47 µM | N#Cc1ccc(-c2nc3sccn3c2-c2ccnc(N[C@@H]3CCCN(S(=O)(=O)c4ccc(Cl)cc4)C3)n2)cc1 [Example 360, 4-{5-[2-({(3R)-1-[(4-chlorophenyl)sulfonyl]piperidin-3-yl}amino)pyrimidin-4-yl]imidazo[2,1-b][1,3]thiazol-6-yl}benzonitrile]
0.195 µM | O=C(c1ccccc1)N1CCC[C@@H](Nc2nccc(-c3c(-c4ccc(F)cc4)nc4occn34)n2)C1 [Example 26, N-[(3R)-1-benzoylpiperidin-3-yl]-4-[6-(4-fluorophenyl)imidazo[2,1-b][1,3]oxazol-5-yl]pyrimidin-2-amine]
0.003 µM | O=S(=O)(c1ccc(Cl)cc1)N1CCC[C@@H](Nc2nccc(-c3c(-c4ccc(F)c(O)c4)nc4sccn34)n2)C1 [Example 353, 5-{5-[2-({(3R)-1-[(4-chlorophenyl)suifonyl]piperidin-3-yl}amino)pyrimidin-4-yl]imidazo[2,1-b][1,3]thiazol-6-yl}-2-fluorophenol]
0.001 µM | Cn1ccc(S(=O)(=O)N2CCC[C@@H](Nc3nccc(-c4c(-c5cccc(O)c5)nc5sccn45)n3)C2)n1 [Example 376, 3-{5-[2-({(3R)-1-[(1-methyl-1H-pyrazol-3-yl)sulfonyl]piperidin-3-yl}amino)pyrimidin-4-yl]imidazo[2,1-b][1,3]thiazol-6-yl}phenol]
